According to publication PMC11435135, “Diagnosis of Prostate Cancer with a Neurotensin–Bombesin Radioligand Combination—First Preclinical Results” (Pharmaceutics, 2024):

Key:
PC-3 xenografts = tested on: PC-3 xenografts; design: species or system mice; details: mouse, in vivo
Procedure: The biodistribution of [^99mTc]Tc-DT11 was studied in male severe combined immunodeficiency (SCID) mice (11 mice 6-weeks of age on arrival date, 18 ± 4 g, NCSR “Demokritos” Animal House, Athens, Greece) bearing PC-3 xenografts in their flanks. Tumor induction was achieved by subcutaneous injection of a PC-3 cell suspension (12 × 10^6 cells in 150 µL PBS) in their flanks. The animals were kept under aseptic conditions and, 3 weeks later, developed palpable masses at the inoculation sites (150 ± 50 mg); biodistribution was then conducted. On the day of the experiment, animals were divided into three groups: controls (n = 4), Entresto® (n = 4) and block (n = 3). All mice were injected in the tail vein with a bolus of [^99mTc]Tc-DT11 (100 µL, 185 kBq, 5 pmol total peptide in vehicle). […] Blood was collected from the heart, and tumors, organs and tissue samples of interest were excised and weighted, and their radioactivity content was measured together with the proper standards of the injected activity in the gamma counter. The percent of injected activity per gram (%IA/g) was calculated, and the results were provided as mean %IA/g values ± sd for each group. […]

PC-3 cells = experiment: Uptake/internalization of [99mTc]Tc-DT11 in PC-3 cells; assay type: cell-based, human; details: radioligand alone, 1 h at 37 °C
Procedure: The day preceding the experiment, PC-3 cells were transferred in 6-well plates (1 × 10^6 cells in 3 mL culture medium per well), and the plates were positioned in the incubator. On the day of the experiment, the plates were placed on ice and the supernatant was aspirated and discarded. The cells were rinsed with 2 × 2 mL ice-cold internalization medium (IM, RPMI-1640 with 1% FBS) and the plates were placed on the bench. Warm IM (1.2 mL at 37 °C) was added to the wells, followed by either warm IM (150 µL—3 upper wells, total series) or excess NT in IM (150 µL to a final concentration of 1 µM—3 lower wells, non-specific series). In a last step, [^99mTc]Tc-DT11 in phosphate-buffered saline with 0.5% bovine serum albumin (PBS-BSA) was added to all plates (250 fmol peptide, ≈100,000 cpm). Cells were incubated for 1 h at 37 °C in an Incubator-Orbital Shaker unit (MPM Instr. SrI, Bernareggio, Milan, Italy). Incubation was interrupted by placing the plates on ice and collecting the supernatants in separate plastic tubes. The cells were rinsed with ice-cold PBS-BSA (1 mL) and the liquid was collected and combined with the respective supernatant tubes. The plates were placed on the bench and incubated 2 × 5 min with acid buffer (2 × 600 µL, 50 mM Gly in 0.1 M NaCl, pH 2.8). Supernatants were again collected and combined in individual tubes (membrane-bound fractions). Cells were rinsed with ice-cold PBS-BSA (1 mL), which was aspirated and discarded. Finally, the cells were treated with 2 × 600 µL 1 M NaOH, detached, collected and combined in separate tubes (internalized fractions). The radioactivity of all tubes was measured in the gamma counter. The percentage of specific membrane-bound and internalized fractions (their sum corresponding to specific cell-uptake) vs. total radioactivity added per well were calculated by subtracting non-specific values from totals. Results were expressed as average values ± standard deviation (sd) from 3 independent experiments performed in triplicate.

NTS1R = details: cited from earlier work
Excerpt: (§1) We decided to investigate the potential advantages–shortcomings of the “radioligand cocktail” approach in human prostate cancer, prompted by the reported co-expression of NTS1R and GRPR in this frequently occurring cancer type. For such a purpose, we opted for the PC-3 cell line to conduct our cell uptake studies as well as to induce subcutaneous xenografts in mice, as it co-expresses the two targets of interest. Based on our previous work on NTS1R- and GRPR-directed radioligands, we selected a cocktail consisting of [^99mTc]Tc-DT11 (NTS1R-specific) [[47] ...

GRPR = details: cited from earlier work
Excerpt: as §1

[1] = NTS1R-specific, % of added activity, mean ± sd, 3 experiments in triplicate

Substance | tumor-to-kidney ratio (PC-3 xenografts) | internalized fraction as share of cell-associated activity (PC-3 cells) | membrane-bound fraction as share of cell-associated activity (PC-3 cells) | internalized fraction (PC-3 cells; [1]) [%] | membrane-bound fraction (PC-3 cells; [1]) [%] | affinity to the respective receptor (NTS1R) | affinity to the respective receptor (GRPR)
N4-Lys(MPBA-PEG4)-Arg-Arg-Pro-Tyr-Ile-Leu-OH [[^99mTc]Tc-DT11, Tc-99m labeled DT11, NTS1R-specific neurotensin-based radioligand] | ≈ 1.5 | ≈ 87% | ≈ 13% | 1.22 ± 0.26 | 0.18 ± 0.12 | sub-nanomolar | –
N4-PEG2-DPhe-Gln-Trp-Ala-Val-Gly-His-Leu-NHEt [[^99mTc]Tc-DB7, Tc-99m labeled DB7, GRPR-specific bombesin-based radioligand (GRPR antagonist)] | – | – | – | – | – | – | sub-nanomolar
